Experimental data reported in PubChem BioAssay (NCI).
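Compound exposure: 48 hours, 5 concentrations, 96-well plates. TGI marks complete inhibition of growth.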

Key:
Experiment in all cases: inhibition of tumour cell growth, NCI panel, 48 h
[1] = system: HOP-62 NSCLC
[2] = system: ACHN renal
[3] = system: NCI-H226 lung
[4] = system: CCRF-CEM leukemia
[5] = system: 786-0 renal
[6] = system: DMS 114 small cell lung
[7] = system: HCT-15 colon
[8] = system: RXF-631 renal
[9] = system: HCC-2998 colon
[10] = system: SK-MEL-5 melanoma
[11] = system: HOP-92 NSCLC
[12] = system: OVCAR-3 ovarian
[13] = system: HCT-116 colon
[14] = system: OVCAR-8 ovarian
[15] = system: TK-10 renal
[16] = system: IGROV1 ovarian
[17] = system: DLD-1 colon
[18] = system: SK-MEL-28 melanoma
[19] = system: SNB-78 CNS
[20] = system: K-562 leukemia
[21] = system: UACC-257 melanoma
[22] = system: OVCAR-4 ovarian
[23] = system: SNB-19 CNS
[24] = system: NCI-H23 lung
[25] = system: SF-268 CNS
[26] = system: HL-60(TB) leukemia
[27] = system: KM20L2 colon
[28] = system: COLO 205 colon
[29] = system: EKVX NSCLC
[30] = system: KM12 colon
[31] = system: SF-539 CNS
[32] = system: SN12C renal
[33] = system: U251 CNS
[34] = system: SW-620 colon
[35] = system: SK-MEL-2 melanoma
[36] = system: HOP-18 NSCLC
[37] = system: XF 498 CNS
[38] = system: M14 melanoma
[39] = system: DMS 273 small cell lung
[40] = system: MOLT-4 leukemia
[41] = system: UACC-62 melanoma
[42] = system: RXF 393 renal
[43] = system: NCI-H522 lung
[44] = system: M19-MEL melanoma
[45] = system: LOX IMVI melanoma
[46] = system: SNB-75 CNS
[47] = system: SF-295 CNS
[48] = system: A549 NSCLC
[49] = system: HT29 colon
[50] = system: RPMI-8226 leukemia
[51] = system: NCI-H460 lung
[52] = system: A498 renal
[53] = system: SK-OV-3 ovarian
[54] = system: MALME-3M melanoma
[55] = system: UO-31 renal
[56] = system: CAKI-1 renal
[57] = system: LXFL 529 NSCLC
[58] = system: OVCAR-5 ovarian
[59] = system: SR leukemia

Measured: TGI

NC1CCC[C@H]1O (stereo partly specified)
not listed: [56] | [57] | [58] | [59]
> 100 µM: all other assays above

Nc1nc(=S)c2c(ncn2CC(O)CO)[nH]1 (stereo unspecified)
not listed: [9] | [24] | [40]
> 100 µM: all other assays above
